These results are taken from patent US5610174A, “Use of α1A -selective adrenoceptor agonists for the treatment of urinary incontinence” (priority 1995, dated 1997).

Molecules are shown by their SMILES. Like-named read-outs stand apart in the source and are kept apart here. Where only a bound is given, the exact number is not on record here.

In one assay the target is T1, human α2B adrenoceptor (Homo sapiens, UniProt P18089).
T1 sequence (P18089 1-450): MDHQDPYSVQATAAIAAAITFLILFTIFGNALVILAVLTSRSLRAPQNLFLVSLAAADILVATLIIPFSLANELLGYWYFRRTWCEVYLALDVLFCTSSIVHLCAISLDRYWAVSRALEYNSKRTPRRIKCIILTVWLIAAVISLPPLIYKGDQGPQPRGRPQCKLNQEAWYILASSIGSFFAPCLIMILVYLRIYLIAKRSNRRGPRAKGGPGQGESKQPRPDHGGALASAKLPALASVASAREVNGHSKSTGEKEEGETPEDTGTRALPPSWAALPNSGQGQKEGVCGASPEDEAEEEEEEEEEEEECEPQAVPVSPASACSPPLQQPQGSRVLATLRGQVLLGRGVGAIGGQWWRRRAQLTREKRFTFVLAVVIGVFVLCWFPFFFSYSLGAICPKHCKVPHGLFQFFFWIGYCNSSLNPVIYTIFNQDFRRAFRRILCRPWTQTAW
The assay can be described thus: Inhibition of forskolin stimulated adenylyl cyclase, α2B. As to conditions: for Emax: read-out: intrinsic activity (i.a.) α2B. Set-up: expressed in transfected cells; host or cells: Y1 cells, line Ya2B-2 (ATCC CRL 11888). The format is cell-based. The protocol: α2 -Adrenoceptor-Mediated Inhibition of Forskolin Stimulated Adenylyl Cyclase
The agonist activity of test compounds was assayed by measuring their ability to inhibit adenylyl cyclase in cells stably transfected with each of the three cloned human α2 -adrenoceptors. LM(tk-) cells expressing the α2A - or the α2C -, as well as Y1 cells expressing the α2B -adrenoceptor were used. […] The formation of cyclic AMP was measured in cultures incubated with DMEM containing 1 mM theophylline. Twelve concentrations of the test compounds (from 10 pM to 100 μM) were added to the incubation medium and incubated at 37° C. for 20 min. Following this incubation step, 10 μM forskolin was added to stimulate the formation of cyclic AMP, and the cultures were incubated for another 10 min. The reaction was stopped by replacing the incubation medium with 100 mM HCl . The intracellular levels of cyclic AMP were measured by radioimmunoassay. The data from concentration-response curves was fitted to a four-parameter logistic equation, by non-linear regression analysis, to determine the pEC50 and intrinsic activity.

The target of a further assay is T2, human α1B adrenoceptor (Homo sapiens, UniProt P35368).
T2 construct: The entire coding region of the α1B receptor (1563 bp); expressed in transfected cells
T2 sequence (P35368 1-520): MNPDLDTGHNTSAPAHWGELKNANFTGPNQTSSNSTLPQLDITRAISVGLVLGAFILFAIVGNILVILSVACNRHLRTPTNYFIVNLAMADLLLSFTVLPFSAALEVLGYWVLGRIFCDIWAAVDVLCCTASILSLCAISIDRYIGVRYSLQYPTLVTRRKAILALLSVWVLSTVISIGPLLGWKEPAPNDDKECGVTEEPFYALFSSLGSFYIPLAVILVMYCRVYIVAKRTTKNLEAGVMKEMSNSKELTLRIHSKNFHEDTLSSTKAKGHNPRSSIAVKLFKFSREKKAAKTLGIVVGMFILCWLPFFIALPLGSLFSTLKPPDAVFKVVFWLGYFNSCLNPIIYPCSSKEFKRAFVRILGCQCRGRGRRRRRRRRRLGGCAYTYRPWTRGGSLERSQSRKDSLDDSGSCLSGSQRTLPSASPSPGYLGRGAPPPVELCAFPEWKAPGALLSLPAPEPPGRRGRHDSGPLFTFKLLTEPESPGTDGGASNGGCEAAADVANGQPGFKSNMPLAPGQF
In words: Radioligand binding ([3H]prazosin) at cloned human α1B. The protocol:
(§1) These cell lines were prepared by transfecting the cloned cDNA or cloned genomic DNA or constructs containing both genomic DNA and cDNA encoding the human α-adrenoceptors as follows:
The construct involved ligating the full-length containing EcoRI brainstem cDNA fragment from λ ZapII into the expression vector. Stable cell lines were obtained as described above.
(§2) Transfected cells from culture flasks were scraped into 5 ml of 5 mM Tris-HCl, 5 mM EDTA, pH 7.5, and lysed by sonication. The cell lysates were centrifuged at 1000 rpm. for 5 min at 4° C., and the supernatant was centrifuged at 30,000 ×g for 20 min at 4° C. The pellet was suspended in 50 mM Tris-HCl , 1 mM MgCl2, and 0.1% ascorbic acid at pH 7.5. […] The reaction was stopped by filtration through GF/B filters using a cell harvester.

In another assay the target is T3, human α1A adrenoceptor (Homo sapiens, UniProt P25100).
T3 sequence (P25100 1-572): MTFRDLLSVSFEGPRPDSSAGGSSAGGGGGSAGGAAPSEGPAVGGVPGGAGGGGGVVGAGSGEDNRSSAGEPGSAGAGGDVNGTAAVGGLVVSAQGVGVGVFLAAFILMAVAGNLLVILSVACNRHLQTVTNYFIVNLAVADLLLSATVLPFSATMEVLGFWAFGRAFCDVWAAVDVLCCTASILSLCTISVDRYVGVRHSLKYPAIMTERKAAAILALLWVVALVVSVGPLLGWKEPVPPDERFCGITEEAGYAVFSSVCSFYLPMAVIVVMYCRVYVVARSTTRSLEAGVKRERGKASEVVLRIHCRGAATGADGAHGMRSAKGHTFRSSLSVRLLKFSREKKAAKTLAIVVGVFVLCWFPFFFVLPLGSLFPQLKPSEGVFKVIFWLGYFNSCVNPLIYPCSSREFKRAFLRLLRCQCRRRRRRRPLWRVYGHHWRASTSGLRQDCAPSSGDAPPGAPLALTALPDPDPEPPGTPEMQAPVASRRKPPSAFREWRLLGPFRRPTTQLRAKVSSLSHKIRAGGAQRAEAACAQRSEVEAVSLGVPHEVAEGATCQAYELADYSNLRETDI
The assay can be described thus: biochemical. The format is binding. The protocol:
as §1
The cells were grown, in a controlled environment (37° C., 5% CO2), as monolayers in Dulbecco's modified Eagle's Medium (GIBCO, Grand Island, N.Y.) containing 25 mM glucose and supplemented with 10% bovine calf serum, 100 units/ml penicillin g, and 100 μg/ml streptomycin sulfate.
as §2

Setting [1] is: agonist, inhibition of forskolin stimulated adenylyl cyclase, read-out: pEC50 α2B (converted).
[2] abbreviates: Table 3, agonists, read-out: pKi α1A (converted).
Where [3] appears, read: relative to reference full agonist (e.g., norepinephrine = unity).
Setting [4] is: Table 2, antagonists, versus 3H-prazosin.

Regarding `COc1ccc(SC)c2c1C[C@@H]1[C@@H](C2)OCCN1C` (relative stereo) [SDZ NVI-085, (±)-trans-4-Methyl-6-methoxy-9-thiomethoxy-3,4,4a, 5,10,10a-hexahydro-2H-naphtho[2,3-b][1,4]oxazine], the EC50 on human α2B adrenoceptor (setting [1]) was > 100 µM. Moreover, on human α2B adrenoceptor, the Emax turned out to be 0%. Moreover, the Ki was 12.6 µM at human α1B adrenoceptor (Table 3, agonists, read-out: pKi α1B (converted)) and 2 µM on human α1A adrenoceptor (setting [2]).

On to `CS(=O)(=O)Nc1c(O)ccc2c1CCCC2C1=NCCN1` (racemic) [Compound A-61603, (±)-N-[5-(4,5-Dihydro-1H-imidazol-2-yl)-2-hydroxy-5,6,7,8-tetra-hydronaphthalen-1-yl]methanesulfonamide], for which, on human α2B adrenoceptor (setting [1]), the EC50 was 0.0794 µM. Moreover, the Emax on human α2B adrenoceptor (setting [3]) came to 80%. For the same molecule, the results for the Ki at human α1B adrenoceptor and at human α1A adrenoceptor (setting [2]) were 15.8 µM and 12.6 µM, respectively.

As for `CN[C@@H](C)[C@H](O)c1ccccc1` [(-)-ephedrine], on human α2B adrenoceptor, the EC50 was 0.251 µM and the Emax turned out to be 40%. At human α1B adrenoceptor, the Ki was 100 µM. On human α1A adrenoceptor, this molecule had a Ki of 50.1 µM.

As for `COc1ccccc1N1CCN(CCCNc2c(C)c(=O)n(C)c(=O)n2C)CC1` [Compound 5-MU], the Ki at human α1B adrenoceptor (Table 2, antagonists, versus 3H-prazosin, read-out: pKI (antagonist affinity, 3H-prazosin binding) hα1B (converted)) is 0.126 µM; at human α1A adrenoceptor (Table 2, antagonists, versus 3H-prazosin, read-out: pKI (antagonist affinity, 3H-prazosin binding) hα1A (converted)) it was 0.0158 µM.

As to `CNC[C@H](O)c1cccc(O)c1` [(-)-phenylephrine], the “intrinsic activity (i.a.) α2B” value at human α2B adrenoceptor (setting [3]) is 0.8. The same molecule showed a Ki at human α1A adrenoceptor of 3.98 µM.

Regarding `COc1cc2c(cc1OC)CN(c1cc(N)c3cc(OC)c(OC)cc3n1)CC2` [Abanoquil, 2-(6,7-Dimethoxy-3,4-dihydro-1H-isoquinolin-2-yl)-6,7-dimethoxyquinolin-4-ylamine hemifumarate hydrate], the “pKI (antagonist affinity, 3H-prazosin binding) hα1B” value at human α1B adrenoceptor (setting [4]) was 10.1. Moreover, the “pKI (antagonist affinity, 3H-prazosin binding) hα1A” value at human α1A adrenoceptor (setting [4]) is on record as 10.4.

As to `COc1ccc(OC)c(C(O)CN)c1` (racemic) [ST-1059, (±)-2-Amino-1-(2, 5 dimethoxyphenyl) ethanol], on human α2B adrenoceptor, the EC50 was 0.00251 µM and the Emax worked out at 60%. The molecule also showed a Ki on human α1B adrenoceptor of 12.6 µM. At human α1A adrenoceptor, this molecule had a Ki of 7.94 µM.

For `C[C@H](N)[C@H](O)c1ccccc1` [(-)-norephedrine], the EC50 at human α2B adrenoceptor is 0.794 µM. Further, the Emax on human α2B adrenoceptor is 50%. The Ki at human α1B adrenoceptor is 50.1 µM; on human α1A adrenoceptor it was 25.1 µM.

For the molecule `CNCCc1ccc(O)c(NS(C)(=O)=O)c1` [SK&F 102652], the Emax on human α2B adrenoceptor stood at 90%.
